# In US9328112B2, “Tetracyclic CDK9 kinase inhibitors” (AbbVie Inc., priority 2014, dated 2016):
# Tests used:
# [1] = system: H929 cells; test: Cell viability assay (Cell TiterGlo); type: cell-based; details: Cell TiterGlo luminescence
# Method: The cell viability assay was performed using H929 cells. Cells were seeded in 96-well plates at 10,000 cells/well and, after overnight incubation, treated with compounds in a dose response of 3-fold dilutions from 10 μM to 0.005 μM ([…], 0.1% final DMSO concentration). After 24 hours at 37° C., cell viability was measured using Cell TiterGlo reagent (Promega) with a luminescence reader.
# [2] = target: CDK9/Cyclin T1 (Homo sapiens (Human), UniProt P50750); test: CDK9 enzyme assay (LANCE ULight TR-FRET kinase assay); type: biochemical; details: 1000 μM ATP, 100 nM ULight MBP, kinase reaction 1 hour
# Chain of CDK9/Cyclin T1 (P50750 whole entry): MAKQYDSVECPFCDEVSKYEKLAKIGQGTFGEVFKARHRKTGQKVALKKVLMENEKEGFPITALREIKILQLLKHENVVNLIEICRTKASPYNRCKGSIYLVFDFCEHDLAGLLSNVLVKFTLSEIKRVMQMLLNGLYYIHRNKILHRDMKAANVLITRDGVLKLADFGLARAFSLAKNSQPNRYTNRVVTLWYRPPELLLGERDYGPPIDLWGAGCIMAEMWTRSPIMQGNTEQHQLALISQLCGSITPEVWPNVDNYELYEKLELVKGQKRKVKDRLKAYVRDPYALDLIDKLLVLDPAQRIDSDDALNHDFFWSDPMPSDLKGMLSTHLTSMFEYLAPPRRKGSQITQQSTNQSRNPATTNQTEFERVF
# Chain of CDK9/Cyclin T1 (O60563 whole entry partner): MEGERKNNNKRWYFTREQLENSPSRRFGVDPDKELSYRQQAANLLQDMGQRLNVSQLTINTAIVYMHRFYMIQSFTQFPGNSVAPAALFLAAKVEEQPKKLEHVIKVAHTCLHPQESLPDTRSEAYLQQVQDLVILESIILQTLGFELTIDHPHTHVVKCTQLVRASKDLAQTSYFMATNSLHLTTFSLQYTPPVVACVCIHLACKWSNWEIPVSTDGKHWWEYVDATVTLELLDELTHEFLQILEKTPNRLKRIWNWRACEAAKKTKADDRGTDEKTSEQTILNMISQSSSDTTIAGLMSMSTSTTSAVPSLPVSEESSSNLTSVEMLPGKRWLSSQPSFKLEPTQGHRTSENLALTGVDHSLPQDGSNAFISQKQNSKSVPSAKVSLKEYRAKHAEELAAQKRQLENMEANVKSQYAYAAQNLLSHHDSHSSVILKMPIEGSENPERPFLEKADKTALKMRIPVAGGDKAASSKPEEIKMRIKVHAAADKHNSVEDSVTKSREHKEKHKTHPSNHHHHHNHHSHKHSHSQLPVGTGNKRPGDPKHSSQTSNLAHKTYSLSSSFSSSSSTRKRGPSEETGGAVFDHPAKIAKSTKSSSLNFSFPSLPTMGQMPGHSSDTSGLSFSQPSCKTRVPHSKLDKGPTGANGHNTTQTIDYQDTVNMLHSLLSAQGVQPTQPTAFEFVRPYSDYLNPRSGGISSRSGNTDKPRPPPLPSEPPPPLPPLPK
# In short: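 TR-FRET readout (ex 320 nm; em 615/665 nm) after 1 h detection with 0.5 nM europium anti-phospho-MBP antibody in 20 mM EDTA stop buffer. Preceding 1 h kinase step: CDK9/Cyclin T1, ULight-MBP substrate at 100 nM, ATP at 1000 μM, compound pre-diluted in DMSO then buffer.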
# [3] = Homo sapiens, NCI-H929, 24 hours at 37° C.
"IC50 [1, 3]",IC50 [2],Compound,IC50 ([1]; 24 hours at 37° C.)
2100 nM,340 nM,"CCCN1Cc2c(C3=CCN(S(C)(=O)=O)CC3)[nH]c3nccc(c23)-c2cc(F)ccc21 [Example 6, 10-fluoro-5-[1-(methylsulfonyl)-1,2,3,6-tetrahydropyridin-4-yl]-7-propyl-6,7-dihydro-4H-3,4,7-triazadibenzo[cd,f]azulene]",–
5 nM,86 nM,"CN1Cc2c(C3=CCN(CC(=O)N4CCC[C@H]4CO)CC3)[nH]c3ncc(F)c(c23)-c2cc(F)ccc21 [Example 70, 2-[4-(1,10-difluoro-7-methyl-6,7-dihydro-4H-3,4,7-triazadibenzo[cd,f]azulen-5-yl)-3,6-dihydropyridin-1(2H)-yl]-1-[(2S)-2-(hydroxymethyl)pyrrolidin-1-yl]ethanone]",–
94 nM,43 nM,"CN(CCO)C(=O)CN1CC2C=C(c3[nH]c4nccc5c4c3CN(C)c3ccc(F)cc3-5)CC2C1 (stereo not shown) [Example 86, 2-[5-(10-fluoro-7-methyl-6,7-dihydro-4H-3,4,7-triazadibenzo[cd,f]azulen-5-yl)-3,3a,4,6a-tetrahydrocyclopenta[c]pyrrol-2(1H)-yl]-N-(2-hydroxyethyl)-N-methylacetamide]",–
100 nM,100 nM,"C[C@H](NC1CC=C(c2[nH]c3nccc4c3c2CN(C)c2ccc(F)cc2-4)CC1)C(=O)O (stereo partly drawn) [Example 30, N-[4-(10-fluoro-7-methyl-6,7-dihydro-4H-3,4,7-triazadibenzo[cd,f]azulen-5-yl)cyclohex-3-en-1-yl]-L-alanine]",–
5500 nM,1600 nM,"CN1Cc2c(C3=CCN(CC(=O)O)CC3(C)C)[nH]c3nccc(c23)-c2cc(F)ccc21 [Example 111, [4-(10-fluoro-7-methyl-6,7-dihydro-4H-3,4,7-triazadibenzo[cd,f]azulen-5-yl)-3,3-dimethyl-3,6-dihydropyridin-1(2H)-yl]acetic acid]",–
13 nM,64 nM,"CC[C@H]1c2c(C3=CCN([C@H]4C[C@@H](C(=O)OC)C4)CC3)[nH]c3nccc(c23)-c2cc(F)ccc2N1C [Example 186, methyl cis-3-{4-[(6S)-6-ethyl-10-fluoro-7-methyl-6,7-dihydro-4H-3,4,7-triazadibenzo[cd,f]azulen-5-yl]-3,6-dihydropyridin-1(2H)-yl}cyclobutanecarboxylate]",–
120 nM,58 nM,"CN1Cc2c(C3=CCN(C4CCC(=CC(=O)O)CC4)CC3)[nH]c3nccc(c23)-c2cc(F)ccc21 (stereo not shown) [Example 177, {4-[4-(10-fluoro-7-methyl-6,7-dihydro-4H-3,4,7-triazadibenzo[cd,f]azulen-5-yl)-3,6-dihydropyridin-1(2H)-yl]cyclohexylidene}acetic acid]",–
1400 nM,420 nM,"CN1Cc2c(C3=CCCN(CC(=O)N(C)C4CC(O)C4)C3)[nH]c3nccc(c23)-c2cc(F)ccc21 (stereo not shown) [Example 122, 2-[5-(10-fluoro-7-methyl-6,7-dihydro-4H-3,4,7-triazadibenzo[cd,f]azulen-5-yl)-3,6-dihydropyridin-1(2H)-yl]-N-(3-hydroxycyclobutyl)-N-methylacetamide]",–
230 nM,66 nM,"CN1Cc2c(-c3ccc(S(C)(=O)=O)cc3)[nH]c3nccc(c23)-c2cc(F)ccc21 [Example 43, 10-fluoro-7-methyl-5-[4-(methylsulfonyl)phenyl]-6,7-dihydro-4H-3,4,7-triazadibenzo[cd,f]azulene]",–
10 nM,43 nM,"CN1Cc2c(C3=CCN(CC(=O)N(C)C4CC(O)C4)CC3)[nH]c3ncc(F)c(c23)-c2cc(F)ccc21 (stereo not shown) [Example 109, 2-[4-(1,10-difluoro-7-methyl-6,7-dihydro-4H-3,4,7-triazadibenzo[cd,f]azulen-5-yl)-3,6-dihydropyridin-1(2H)-yl]-N-(3-hydroxycyclobutyl)-N-methylacetamide]",–
91 nM,100 nM,"CN1Cc2c(C3=CC4CN(CC(=O)N(C)C5CC(O)C5)CC4C3)[nH]c3nccc(c23)-c2cc(F)ccc21 (stereo not shown) [Example 94, 2-[5-(10-fluoro-7-methyl-6,7-dihydro-4H-3,4,7-triazadibenzo[cd,f]azulen-5-yl)-3,3a,4,6a-tetrahydrocyclopenta[c]pyrrol-2 (1H)-yl]-N-(3-hydroxycyclobutyl)-N-methylacetamide]",–
70 nM,86 nM,"CN1Cc2c(C3=CCC(NCC(=O)O)CC3)[nH]c3nccc(c23)-c2cc(F)ccc21 (stereo not shown) [Example 31, N-[4-(10-fluoro-7-methyl-6,7-dihydro-4H-3,4,7-triazadibenzo[cd,f]azulen-5-yl)cyclohex-3-en-1-yl]glycine]",–

Compound,"IC50 [1, 3]",IC50 [2],IC50 ([1]; 24 hours at 37° C.)
"CNC(=O)N1[C@H]2CC[C@@H]1C=C(c1[nH]c3nccc4c3c1CN(C)c1ccc(F)cc1-4)C2 [Example 57, (1R,5S)-3-(10-fluoro-7-methyl-6,7-dihydro-4H-3,4,7-triazadibenzo[cd,f]azulen-5-yl)-N-methyl-8-azabicyclo[3.2.1]oct-2-ene-8-carboxamide]",2200 nM,200 nM,–
"CN1Cc2c(C3=CCN([C@H]4CC[C@H](C(=O)O)CC4)CC3)[nH]c3nccc(c23)-c2cc(F)ccc21 [Example 141, trans-4-[4-(10-fluoro-7-methyl-6,7-dihydro-4H-3,4,7-triazadibenzo[cd,f]azulen-5-yl)-3,6-dihydropyridin-1(2H)-yl]cyclohexanecarboxylic acid]",30 nM,51 nM,–
"CN1Cc2c(C3=CCNCC3)[nH]c3nccc(c23)-c2cc(F)ccc21 [Example 1, 10-fluoro-7-methyl-5-(1,2,3,6-tetrahydropyridin-4-yl)-6,7-dihydro-4H-3,4,7-triazadibenzo[cd,f]azulene]",40 nM,21 nM,–
"CN(CCO)C(=O)CN1CC=C(c2[nH]c3nccc4c3c2CN(C)c2ccc(F)cc2-4)CC1 [Example 19, 2-[4-(10-fluoro-7-methyl-6,7-dihydro-4H-3,4,7-triazadibenzo[cd,f]azulen-5-yl)-3,6-dihydropyridin-1(2H)-yl]-N-(2-hydroxyethyl)-N-methylacetamide]",8 nM,48 nM,–
"CNC(=O)N1C2C=C(c3[nH]c4nccc5c4c3CN(C)c3ccc(F)cc3-5)CC1CCC2 (stereo not shown) [Example 100, 3-(10-fluoro-7-methyl-6,7-dihydro-4H-3,4,7-triazadibenzo[cd,f]azulen-5-yl)-N-methyl-9-azabicyclo[3.3.1]non-2-ene-9-carboxamide]",1200 nM,83 nM,–
"CN1Cc2c(C3=CCNCC3)[nH]c3nccc(c23)-c2cccnc21 [Example 135, 7-methyl-5-(1,2,3,6-tetrahydropyridin-4-yl)-6,7-dihydro-4H-3,4,7,8-tetraazadibenzo[cd,f]azulene]",76 nM,63 nM,–
"CN(C)C(=O)CN1CC=C(c2[nH]c3nccc4c3c2CCN(C)c2ccc(F)cc2-4)CC1 [Example 129, 2-[4-(8-fluoro-5-methyl-1,3,4,5-tetrahydro-1,5,12-triazabenzo[4,5]cycloocta[1,2,3-cd]inden-2-yl)-3,6-dihydropyridin-1(2H)-yl]-N,N-dimethylacetamide]",–,67 nM,130 nM
"CN1Cc2c(C3=C[C@H](CO)NCC3)[nH]c3nccc(c23)-c2cc(F)c(F)cc21 [Example 126, [(2R)-4-(9,10-difluoro-7-methyl-6,7-dihydro-4H-3,4,7-triazadibenzo[cd,f]azulen-5-yl)-1,2,5,6-tetrahydropyridin-2-yl]methanol]",39 nM,58 nM,–
